Source: ChEMBL document CHEMBL3885881, “DrugMatrix”

Species: Rattus norvegicus
Experiment: DrugMatrix - Regimen: Daily Repeat
Type: toxicity, organism-based, Sprague-Dawley
Design: regimen Daily Repeat, gender Male, age 6-8 weeks
Conditions: in vivo, iv, vehicle 100 % SALINE; for ABSOLUTE BASOPHIL / ABSOLUTE EOSINOPHIL / ABSOLUTE LYMPHOCYTE / ABSOLUTE MONOCYTE / ABSOLUTE SEGMENTED NEUTROPHIL / BASOPHIL / EOSINOPHIL / ERYTHROCYTE COUNT / HEMATOCRIT / HEMOGLOBIN / LEUKOCYTE COUNT / LYMPHOCYTE / MEAN CORPUSCULAR HEMOGLOBIN / MEAN CORPUSCULAR HEMOGLOBIN CONCENTRATION / MEAN CORPUSCULAR VOLUME / MONOCYTE / NEUTROPHIL / NUCLEATED RED BLOOD CELLS / PLATELET COUNT: tissue Blood; for ALANINE AMINOTRANSFERASE / ALBUMIN / ALKALINE PHOSPHATASE / ASPARTATE AMINOTRANSFERASE / BLOOD UREA NITROGEN / CARBON DIOXIDE / CHLORIDE / CHOLESTEROL / CREATINE PHOSPHOKINASE / CREATININE / GLUCOSE / LACTATE DEHYDROGENASE / LIPASE / PHOSPHORUS / POTASSIUM / SODIUM / TOTAL BILIRUBIN / TOTAL PROTEIN / URIC ACID: tissue Plasma
[1] = 0.5 mg/kg, 120 h, dose level Low, time 5 day
[2] = […], 72 h, dose 1.7 mg/Kg, dose level High, time 3 day
[3] = […], 120 h, dose 1.7 mg/Kg, dose level High, time 5 day

CO[C@@]12[C@H](COC(N)=O)C3=C(C(=O)C(C)=C(N)C3=O)N1C[C@@H]1N[C@@H]12 [MITOMYCIN]
ABSOLUTE BASOPHIL [1]: 0 CELLS/uL
ABSOLUTE EOSINOPHIL [1]: 31 CELLS/uL
ABSOLUTE LYMPHOCYTE [1]: 7760.33 CELLS/uL
ABSOLUTE MONOCYTE [1]: 22.67 CELLS/uL
ABSOLUTE SEGMENTED NEUTROPHIL [1]: 286 CELLS/uL
BASOPHIL [1]: 0%
EOSINOPHIL [1]: 0.33%
ERYTHROCYTE COUNT [1]: 6.12 x10E6/uL
HEMATOCRIT [1]: 36.83%
HEMOGLOBIN [1]: 14.33 G/DL
LEUKOCYTE COUNT [1]: 8.1 x10E3/uL
LYMPHOCYTE [1]: 96%
MEAN CORPUSCULAR HEMOGLOBIN [1]: 23.4 pg
MEAN CORPUSCULAR HEMOGLOBIN CONCENTRATION [1]: 38.9 G/DL
MEAN CORPUSCULAR VOLUME [1]: 60.2 fL
MONOCYTE [1]: 0.33%
NEUTROPHIL [1]: 3.33%
NUCLEATED RED BLOOD CELLS [1]: 0.67 /100WBC
PLATELET COUNT [1]: 1302.33 x10E3/uL
ALANINE AMINOTRANSFERASE [1]: 47.33 u/L
ALBUMIN [1]: 4.03 G/DL
ALKALINE PHOSPHATASE [1]: 285.67 u/L
ASPARTATE AMINOTRANSFERASE [1]: 78 u/L
BLOOD UREA NITROGEN [1]: 16.33 mg/dL
CARBON DIOXIDE [1]: 29.33 mmol/L
CHLORIDE [1]: 101.67 MEQ/L
CHOLESTEROL [1]: 67.33 mg/dL
CREATINE PHOSPHOKINASE [1]: 203 u/L
CREATININE [1]: 0.34 mg/dL
GLUCOSE [1]: 154 mg/dL
LACTATE DEHYDROGENASE [1]: 120 u/L
LIPASE [1]: 11 u/L
PHOSPHORUS [1]: 10.5 mg/dL
POTASSIUM [1]: 4.84 MEQ/L
SODIUM [1]: 145.67 MEQ/L
TOTAL BILIRUBIN [1]: 0.13 mg/dL
TOTAL PROTEIN [1]: 5.83 G/DL
URIC ACID [1]: 0.57 mg/dL
ABSOLUTE BASOPHIL [2]: 0 CELLS/uL
ABSOLUTE EOSINOPHIL [2]: 31.67 CELLS/uL
ABSOLUTE LYMPHOCYTE [2]: 7497.33 CELLS/uL
ABSOLUTE MONOCYTE [2]: 0 CELLS/uL
ABSOLUTE SEGMENTED NEUTROPHIL [2]: 1104.33 CELLS/uL
BASOPHIL [2]: 0%
EOSINOPHIL [2]: 0.33%
ERYTHROCYTE COUNT [2]: 5.47 x10E6/uL
HEMATOCRIT [2]: 33.9%
HEMOGLOBIN [2]: 13.43 G/DL
LEUKOCYTE COUNT [2]: 8.63 x10E3/uL
LYMPHOCYTE [2]: 86.67%
MEAN CORPUSCULAR HEMOGLOBIN [2]: 24.6 pg
MEAN CORPUSCULAR HEMOGLOBIN CONCENTRATION [2]: 39.63 G/DL
MEAN CORPUSCULAR VOLUME [2]: 62.07 fL
MONOCYTE [2]: 0%
NEUTROPHIL [2]: 13%
NUCLEATED RED BLOOD CELLS [2]: 0 /100WBC
PLATELET COUNT [2]: 1626.67 x10E3/uL
ALANINE AMINOTRANSFERASE [2]: 35.67 u/L
ALBUMIN [2]: 4.03 G/DL
ALKALINE PHOSPHATASE [2]: 211 u/L
ASPARTATE AMINOTRANSFERASE [2]: 72.33 u/L
BLOOD UREA NITROGEN [2]: 13.33 mg/dL
CARBON DIOXIDE [2]: 29.33 mmol/L
CHLORIDE [2]: 99.33 MEQ/L
CHOLESTEROL [2]: 71.33 mg/dL
CREATINE PHOSPHOKINASE [2]: 245.67 u/L
CREATININE [2]: 0.15 mg/dL
GLUCOSE [2]: 145.33 mg/dL
LACTATE DEHYDROGENASE [2]: 173 u/L
LIPASE [2]: 8 u/L
PHOSPHORUS [2]: 11.53 mg/dL
POTASSIUM [2]: 5.56 MEQ/L
SODIUM [2]: 141.2 MEQ/L
TOTAL BILIRUBIN [2]: 0.1 mg/dL
TOTAL PROTEIN [2]: 5.6 G/DL
URIC ACID [2]: 1.6 mg/dL
ABSOLUTE BASOPHIL [3]: 0 CELLS/uL
ABSOLUTE EOSINOPHIL [3]: 0 CELLS/uL
ABSOLUTE LYMPHOCYTE [3]: 2370 CELLS/uL
ABSOLUTE MONOCYTE [3]: 67 CELLS/uL
ABSOLUTE SEGMENTED NEUTROPHIL [3]: 663 CELLS/uL
BASOPHIL [3]: 0%
EOSINOPHIL [3]: 0%
ERYTHROCYTE COUNT [3]: 6.15 x10E6/uL
HEMATOCRIT [3]: 38.97%
HEMOGLOBIN [3]: 14.9 G/DL
LEUKOCYTE COUNT [3]: 3.1 x10E3/uL
LYMPHOCYTE [3]: 78.33%
MEAN CORPUSCULAR HEMOGLOBIN [3]: 24.23 pg
MEAN CORPUSCULAR HEMOGLOBIN CONCENTRATION [3]: 38.23 G/DL
MEAN CORPUSCULAR VOLUME [3]: 63.33 fL
MONOCYTE [3]: 2%
NEUTROPHIL [3]: 19.67%
NUCLEATED RED BLOOD CELLS [3]: 0 /100WBC
PLATELET COUNT [3]: 1554 x10E3/uL
ALANINE AMINOTRANSFERASE [3]: 21.33 u/L
ALBUMIN [3]: 3.37 G/DL
ALKALINE PHOSPHATASE [3]: 94.67 u/L
ASPARTATE AMINOTRANSFERASE [3]: 57 u/L
BLOOD UREA NITROGEN [3]: 15 mg/dL
CARBON DIOXIDE [3]: 30.67 mmol/L
CHLORIDE [3]: 100.33 MEQ/L
CHOLESTEROL [3]: 84.67 mg/dL
CREATINE PHOSPHOKINASE [3]: 265.67 u/L
CREATININE [3]: 0.26 mg/dL
GLUCOSE [3]: 154 mg/dL
LACTATE DEHYDROGENASE [3]: 136.67 u/L
LIPASE [3]: 10.67 u/L
PHOSPHORUS [3]: 8.73 mg/dL
POTASSIUM [3]: 4.86 MEQ/L
SODIUM [3]: 144.3 MEQ/L
TOTAL BILIRUBIN [3]: 0.1 mg/dL
TOTAL PROTEIN [3]: 5.13 G/DL
URIC ACID [3]: 0.57 mg/dL
